Structures are written as SMILES. Some results are limits rather than exact numbers.

As a reminder, the CC50 is the concentration that lowers cell viability or growth by half. The low end stands for greater toxicity to the cells, the high end for lower toxicity to the cells. By IC50 is commonly meant the point on the concentration scale where inhibition reaches its midpoint.

One data set relates to MRC-5 cells. Kind of data set: in vitro. In kind it is cell-based, human. The protocol:
(§1) The cytotoxicity of B-PFA and B-PAA in subconfluent MRC-5 cells was assessed by trypan blue exclusion.

A further data set is described as follows: in vitro. It is filed as cell-based, human. Conditions: human, mrc-5 cells. The protocol:
as §1

The next data set has as its system human cytomegalovirus. Kind of data set: CMV antiviral susceptibility assay: HCMV DNA by nucleic acid hybridization in infected MRC-5 cells (Tables I and II). It is filed as cell-based. The conditions noted are these: for fold increase in activity / times the activity of PAA: HCMV; for IC50: HCMV-infected MRC-5 cells, HCMV DNA after five days, mean ± S.D. (n). The protocol:
Phosphonoacid derivatives having structures according to formula I were tested for antiviral activity in human embryonic lung fibroblasts (MRC-5) or in human epithelioid cervical carcinoma cells (HeLa) expressing the CD4 receptor (HT4-6C). HCMV (strain AD-169) and HSV-1 (wild type) were used to infect MRC-5 cells and HCMV or HSV-specific DNA was measured by DNA-probe methods (HybriwixTM, Diagnostic Hybrids, Inc., Athens, Ohio) according to the manufacturer's instructions. HIV replication was accessed in HIV-1 infected HT4-6C cells using a plaque reduction assay ([…]. et al. (1990) Antimicrobial Agents Chemother. 34:436). Subconfluent MRC-5 cells in 24-well culture dishes were pretreated for 24 hours with various concentrations of drug in MEM medium containing 2% FBS and antibiotics. The media was removed and virus added at a dilution that will result in a 3-4+ cytopathic effect (CPE) in the no-drug wells in five days. This was absorbed for 1 hour at 37° C., aspirated and replaced with the drug dilutions. After five days of incubation HCMV DNA was quantified in triplicate by nucleic acid hybridization using a CMV Antiviral Susceptibility Test Kit from Diagnostic Hybrids, Inc. (Athens, Ohio). The media was removed and cells lysed according to the manufacturer's instructions. After absorption of the lysate, the HybriwixTM filters were hybridized overnight at 60° C. The HybriwixTM were washed for 30 minutes at 73° C. and counted in a gamma counter. The results are expressed as a percentage of the untreated HCMV-infected control cells.

The subject of data set [1] is human immunodeficiency virus-1. As to the kind of experiment: HIV-1 plaque reduction assay in HT4-6C cells (Table IV). The conditions noted are these: for fold increase in activity: HIV-1, versus PFA; for IC50: Human immunodeficiency virus 1, 72 h, HIV-1 plaque reduction in HT4-6C cells, 3 days, mean ± S.D. (n). In kind it is cell-based, HIV-1 in CD4-expressing human HeLa cells (HT4-6C). The protocol:
(§2) Phosphonoacid derivatives having structures according to formula I were tested for antiviral activity in human embryonic lung fibroblasts (MRC-5) or in human epithelioid cervical carcinoma cells (HeLa) expressing the CD4 receptor (HT4-6C). HCMV (strain AD-169) and HSV-1 (wild type) were used to infect MRC-5 cells and HCMV or HSV-specific DNA was measured by DNA-probe methods (Hybriwix™, Diagnostic Hybrids, Inc., Athens, Ohio) according to the manufacturer's instructions. HIV replication was accessed in HIV-1 infected HT4-6C cells using a plaque reduction assay (Larder, B. et al. (1990) Antimicrobial Agents Chemother. 34:436).
HT4-6C cells and plaque reduction assay, CD4-expressing HeLa cells, HT4-6C cells (Chesebro, B. and K. Wehrly (1988) J. Virology 62:3779-3788), were obtained from Bruce Chesebro, Hamilton, Mont. The effect of antiviral compounds on HIV replication was measured by a plaque reduction assay. Briefly, monolayers of HT4-6C cells were infected with 100 to 300 PFU of virus per well in 24-well microdilution plates. Various concentrations of drug were added to the culture medium, Dulbecco's Modified Eagle Medium containing 5% fetal bovine serum and antibiotics, as noted above. After 3 days at 37° C., the monolayers were fixed with 10% formaldehyde solution in phosphate-buffered saline and stained with 0.25% crystal violet to visualize virus plaques (Larder, B. et al. (1989) Science 243:1731-1734). Antiviral activity was assessed as the percentage of control plaques measured in drug-treated samples.
(In general: Plaques are areas of infected cells; plaque reduction assays count them against a control.)

Data set [2] has as its system human herpes simplex virus 1. Kind of data set: HSV antiviral susceptibility assay: HSV DNA by nucleic acid hybridization in infected MRC-5 cells (Table III). Conditions: for times more active than PFA / fold increase in activity: HSV-1; for fold increase in activity: versus PFA; for IC50: Human alphaherpesvirus 1, MRC5, HSV-1-infected MRC-5 cells, approximately 24 hours, mean ± S.D. (n), read-out: IC50. It is filed as cell-based. The protocol: as §2
Subconfluent MRC-5 cells in 24-well culture dishes were inoculated by removing the media and adding HSV-1 virus at a dilution that will result in a 3-4+ CPE in the no-drug well in 20-24 hours. This was absorbed for 1 hour at 37° C., aspirated and replaced with various concentrations of drugs in MEM medium containing 2% FBS and antibiotics. After approximately 24 hours of incubation, HSV DNA was quantified in triplicate by nucleic acid hybridization using a HSV Antiviral Susceptibility Test Kit from Diagnostic Hybrids, Inc. (Athens, Ohio). The media was removed and cells lysed according to the manufacturer's instructions. After absorption of the lysate, the Hybriwix™ filters were hybridized overnight at […] The Hybriwix™ were washed for 30 minutes at 73° C. and counted in a gamma counter. The results are expressed as a percentage of the untreated HSV-infected control cells.

Where [3] appears, read: phosphonoacetate series, versus PAA.
The mark [4] stands for this setting: Human betaherpesvirus 5, MRC5, 120 h.
The mark [5] stands for this setting: phosphonoformate series, versus PFA.

Take `CCCCCCCCCCCCCCCCCCOC[C@@H](O)COP(=O)(O)CC(=O)O` [B--PAA, 1O-octadecyl-snglycero-3-phosphonoacetic acid]: the selectivity index in the data set with MRC-5 cells is recorded as at least 300. In the data set “in vitro”, this compound displayed a CC50 of 32 to 100 µM. Also, the “fold increase in activity” value with human cytomegalovirus (setting [3]) is on record as 100 fold. In the data set with human cytomegalovirus (setting [4]), this compound yielded a concentration for half-maximal inhibition (IC50) of 0.22 ± 0.08 µM.

In the case of `CCCCCCCCCCCCCCCCCCOC[C@@H](O)COP(=O)(O)CC(=O)OCC` [B--PAA--OEt, 1O-octadecyl-snglycero-3-phosphonoacetate ethyl ester], the “fold increase in activity” value with human cytomegalovirus (setting [3]) came to 6.1 fold. This compound displayed an IC50 in the data set with human cytomegalovirus (setting [4]) of 3.6 ± 1.5 µM.

`CCCCCCCCCCCCCCCCCCOC[C@@H](O)COP(=O)(O)C(=O)O` [B--PFA, 1O-octadecyl-snglycero-3-phosphonoformic acid] gave a selectivity index with MRC-5 cells of at least 300. Besides, in “in vitro”, the CC50 is over 1000 µM. The “fold increase in activity” value amounted to 37 fold in data set [1], 107 fold with human cytomegalovirus (setting [5]) and 43 fold in data set [2]. Also, the IC50 came out at 3.6 ± 1.51 µM in data set [1], 0.43 ± 0.27 µM in the data set on human cytomegalovirus (setting [4]) and 1100 ± 1100 nM in data set [2]. The “times more active than PFA” value in data set [2] came out at 43 times.

Consider `CCCCCCCCCCCCCCCCCCOC[C@@H](O)COP(=O)(O)C(=O)OCC` [B--PFA--OEt, 1O-octadecyl-snglycero-3-phosphonoformate ethyl ester], for which the “fold increase in activity” value with human cytomegalovirus (setting [5]) was 38 fold. In the data set on human cytomegalovirus (setting [4]), the IC50 was 1.2 ± 0.49 µM.

For `CCCCCCCCCCCCCCCCCCOC[C@H](COC(=O)CP(=O)(O)O)OCc1ccccc1` [BB--(C)--PAA, 1O-octadecyl-2-O-benzyl-snglycero-3-carboxymethylenephosphonate], in the data set on human cytomegalovirus (setting [3]), the “fold increase in activity” value amounted to 16 fold. In the data set with human cytomegalovirus (setting [4]), this compound had an IC50 of 1.4 ± 0.9 µM.

`CCCCCCCCCCCCCCCCCCOC[C@H](COP(=O)(O)CC(=O)O)OCc1ccccc1` [BB--PAA, 1O-octadecyl-2-O-benzyl-snglycero-3-phosphonoacetic acid]: the “fold increase in activity” value in the data set on human cytomegalovirus (setting [3]) is 24 fold. The IC50 with human cytomegalovirus (setting [4]) came to 0.92 ± 0.8 µM.

Take `CCCCCCCCCCCCCCCCCCOC[C@H](COP(=O)(O)CC(=O)OCC)OCc1ccccc1` [BB--PAA--OEt, 1O-octadecyl-2-O-benzyl-snglycero-3-phosphonoacetate ethyl ester]: the “fold increase in activity” value with human cytomegalovirus (setting [3]) was found to be 3.1 fold. Besides, the IC50 in the data set with human cytomegalovirus (setting [4]) was 7.2 ± 1 µM.

Consider `CCCCCCCCCCCCCCCCCCOC[C@H](COP(=O)(O)C(=O)O)OCc1ccccc1` [BB--PFA, 1O-octadecyl-2-O-benzyl-snglycero-3-phosphonoformic acid], for which the “fold increase in activity” value in data set [1] stood at 9.0 fold; in data set [1] (listed as BB-PFA), 9 fold; in the data set with human cytomegalovirus (setting [5]), 72 fold; in data set [2], 34 fold. The results for the IC50 (in data set [1]; in the data set with human cytomegalovirus (setting [4]); in data set [2]) were 14.8 ± 7.3 µM, 0.64 ± 0.65 µM and 1400 ± 400 nM, respectively. The “times more active than PFA” value in data set [2] is reported as 34 times.

Regarding `CCCCCCCCCCCCCCCCCCOC[C@H](COP(=O)(O)C(=O)OCC)OCc1ccccc1` [BB--PFA--OEt, 1O-octadecyl-2-O-benzyl-snglycero-3-phosphonoformate ethyl ester], in the data set with human cytomegalovirus (setting [5]), the “fold increase in activity” value turned out to be 16 fold. In the data set with human cytomegalovirus (setting [4]), the IC50 was 2.9 ± 0.97 µM.

For the compound `CCCCCCCCCCCCCC(=O)OC[C@H](COP(=O)(O)CC(=O)O)OC(=O)CCCCCCCCCCCCC` [DMG--PAA, 1,2dimyristoyl-snglycero-3-phosphonoacetate], the “times the activity of PAA” value in the data set with human cytomegalovirus is given as 1.2 times. The “fold increase in activity” value in the data set with human cytomegalovirus (setting [3]) came out at 1.2 fold. In the data set with human cytomegalovirus (setting [4]), this compound showed an IC50 of 19 ± 6.5 µM.

`CCCCCCCCCCCCCC(=O)OC[C@H](COP(=O)(O)CC(=O)OCC)OC(=O)CCCCCCCCCCCCC` [DMG--PAA--OEt, 1,2dimyristoyl-snglycero-3-phosphonoacetate ethyl ester]: the “fold increase in activity” value in the data set with human cytomegalovirus (setting [3]) turned out to be 0.2 fold. Besides, half-maximal inhibition in the data set with human cytomegalovirus (setting [4]) (IC50) was put at 108 ± 42 µM.

As for `CCCCCCCCCCCCCC(=O)OC[C@H](COP(=O)(O)C(=O)O)OC(=O)CCCCCCCCCCCCC` [DMG--PFA, 1,2dimyristoyl-snglycero-3-phosphonoformate], the “fold increase in activity” value in the data set on human cytomegalovirus (setting [5]) was found to be 0.33 fold. In the data set on human cytomegalovirus (setting [4]), this compound came in with an IC50 of 125 ± 43 µM.

For `CCCCCCCCCCCCCC(=O)OC[C@H](COP(=O)(O)C(=O)OCC)OC(=O)CCCCCCCCCCCCC` [DMG--PFA--OEt, 1,2dimyristoyl-snglycero-3-phosphonoformate ethyl ester], in the data set on human cytomegalovirus (setting [5]), the “fold increase in activity” value is given as 1.53 fold. The IC50 with human cytomegalovirus (setting [4]) came to 30 ± 18 µM.

In the case of `CCCCCCCCCCCCCC(=O)OC[C@H](COP(=O)(O)OP(=O)(O)CC(=O)O)OC(=O)CCCCCCCCCCCCC` [DMP--PAA, 1,2dimyristoyl-snglycero-3-phospho-phosphonoacetate], in the data set with human cytomegalovirus, the “times the activity of PAA” value is recorded as 0.24 times and the IC50 was found to be 93 ± 92 µM. In addition, the “fold increase in activity” value with human cytomegalovirus (setting [3]) amounted to 0.2 fold.

The compound `CCCCCCCCCCCCCC(=O)OC[C@H](COP(=O)(O)OP(=O)(O)CC(=O)OCC)OC(=O)CCCCCCCCCCCCC` [DMP--PAA--OEt, 1,2dimyristoyl-snglycero-3-phospho-phosphonoacetate ethyl ester] came in with an IC50 in the data set on human cytomegalovirus of 130 ± 28 µM. Besides, in the data set on human cytomegalovirus (setting [3]), the “fold increase in activity” value turned out to be 0.2 fold.

As for `CCCCCCCCCCCCCCCC(=O)OC[C@H](COP(=O)(O)OP(=O)(O)CC(=O)O)OC(=O)CCCCCCCCCCCCCCC` [DPP--PAA, 1,2dipalmitoyl-snglycero-3-phospho-phosphonoacetate], in the data set on human cytomegalovirus, the “times the activity of PAA” value stood at 0.28 times and the IC50 came to 80 ± 42 µM. Besides, in the data set on human cytomegalovirus (setting [3]), the “fold increase in activity” value was found to be 0.3 fold.

As to `CCCCCCCCCCCCCCCCCCOC[C@H](COP(=O)(O)CC(=O)O)OC` [MB--PAA, 1O-octadecyl-2-O-methyl-snglycero-3-phosphonoacetic acid], in the data set on human cytomegalovirus (setting [3]), the “fold increase in activity” value is recorded as 36 fold. Besides, the IC50 in the data set on human cytomegalovirus (setting [4]) was found to be 0.61 ± 0.76 µM.

As for `CCCCCCCCCCCCCCCCCCOC[C@H](COP(=O)(O)CC(=O)OCC)OC` [MB--PAA--OEt, 1-O-octadecyl-2-O-methyl-sn-glycero-3-phosphonoacetic acid ethyl ester], the “fold increase in activity” value in the data set with human cytomegalovirus (setting [3]) came to 3.3 fold. The same compound gave an IC50 in the data set on human cytomegalovirus (setting [4]) of 6.7 ± 1.9 µM.

As for `CCCCCCCCCCCCCCCCCCOC[C@H](COP(=O)(O)C(=O)O)OC` [MB--PFA, 1O-octadecyl-2-O-methyl-snglycero-3-phosphonoformic acid], in data set [1] (HIV-1, HT4-6C cells, p = 0.0373 versus B-PFA), the “activity compared with B-PFA” value was “more active than B-PFA to a statistically significant degree”. For the same compound, the “fold increase in activity” value in data set [1] turned out to be 104 fold; in the data set on human cytomegalovirus (setting [5]), 72 fold; in the data set on human cytomegalovirus (phosphonoformate series, versus PFA, listed as MB-PFA), 38 fold; in data set [2], 72 fold. The IC50 in data set [1] is 1.28 ± 0.73 µM; in the data set with human cytomegalovirus (setting [4]), 0.64 ± 0.14 µM; in data set [2], 650 ± 210 nM. Further, in data set [2], the “times more active than PFA” value was 72 times.

Source of the values: patent publication US5696277A, “Antiviral prodrugs” (Hostetler; Karl Y., priority 1994, dated 1997).
